This is an account of results in article PMC6364417, “Kinase inhibitor library screening identifies synergistic drug combinations effective in sensitive and resistant melanoma cells” (Journal of Experimental & Clinical Cancer Research : CR, 2019).

Assay in all cases: Kinase inhibitor library screening, PrestoBlue cell viability, 1 or 10 μM, 72 h
The test system of data set [1] is A375-XP cells (Vemurafenib-resistant). On the procedure:
(§1) After 72 h of treatment, cell viability was assessed using the PrestoBlue Cell Viability Reagent (ThermoFisher Scientific). Measurements were performed with the CLARIOstar Monochromator microplate reader (BMG Labtech).
(§2) Kinase inhibitor library screening. […] Each cell line was treated in its sensitive form (parental), and also as 2 resistant derivatives, which were made resistant to either Vemurafenib (XP) or Dabrafenib (GP). Drugs were added at 2 different concentrations, 1 and 10 μM, for 72 h and cell viability was assessed using the PrestoBlue Cell Viability assay. Results are depicted as % viability compared to untreated cells. Each cell line was analyzed at least in duplicate. […] (XLSX 95 kb)

For data set [2], the system named is 501Mel cells (parental). As to conditions: in %. As to the method:
as §1, §2

For data set [3], the system named is A375 cells (parental). On the procedure: as §1, §2
Data set [4] concerns IGR37 cells (parental). The following applies: in %. As to the method: as §1, §2
Data set [5] has as its system 501Mel-GP cells (Dabrafenib-resistant). The following applies: 501Mel GP, in %. On the procedure: as §1, §2
The subject of data set [6] is 501Mel-XP cells (Vemurafenib-resistant). The following applies: in %. As to the method: as §1, §2
The test system of data set [7] is IGR37-GP cells (Dabrafenib-resistant). As to the method:
as §1, §2

The subject of data set [8] is IGR37-XP cells (Vemurafenib-resistant). As to the method: as §1, §2
Data set [9] concerns A375-GP cells (Dabrafenib-resistant). As to the method: as §1, §2

SMILES strings stand for the structures. Where two headings read alike, the source gives them in different places.

In the case of `CC(O)C(=O)O.CC(O)C(=O)O.CN1CCN(c2ccc3nc(-c4c(N)c5c(F)cccc5[nH]c4=O)[nH]c3c2)CC1`, in data set [1] (A375 XP, 10μΜ, 72 h, in %), the “cell viability, A375 XP, 10μΜ” value was found to be 59.2. For the same compound, the “cell viability, 501Mel Parental, 1μΜ” value in [2] (501Mel Parental, 1μΜ, 72 h) was found to be 106.3. Further, the “cell viability, 501Mel Parental, 10μΜ” value in data set [2] (501Mel Parental, 10μΜ, 72 h) came to 0.756. Also, in data set [3] (A375 Parental, 1μΜ, 72 h, in %), the “cell viability, A375 Parental, 1μΜ” value turned out to be 106.9. Further, in [3] (A375 Parental, 10μΜ, 72 h, in %), the “cell viability, A375 Parental, 10μΜ” value is given as 48.0. Moreover, the “cell viability, IGR37 Parental, 1μΜ” value in data set [4] (IGR37 Parental, 1μΜ, 72 h) is 105.9. For the same compound, the “cell viability, IGR37 Parental, 10μΜ” value in data set [4] (IGR37 Parental, 10μΜ, 72 h) was 76.1. For the same compound, the “cell viability, 501Mel GP, 1μΜ” value in data set [5] (1μΜ, 72 h) was 100.0. The “cell viability, 501Mel GP, 10μΜ” value in [5] (10μΜ, 72 h) worked out at 0.0395. The “cell viability, 501Mel XP, 1μΜ” value in [6] (501Mel XP, 1μΜ, 72 h) was 91.1. In [6] (501Mel XP, 10μΜ, 72 h), the “cell viability, 501Mel XP, 10μΜ” value was -0.0481. Moreover, in [7] (IGR37 GP, 10μΜ, 72 h), the cell viability, IGR37 GP, 10μΜ came to 46.5%. Also, the “cell viability, IGR37 GP, 1μΜ” value in data set [7] (IGR37 GP, 1μΜ, 72 h, in %) came out at 106.1. This compound showed a cell viability, IGR37 XP, 10μΜ in [8] (IGR37 XP, 10μΜ, 72 h) of 33%. Moreover, in data set [8] (IGR37 XP, 1μΜ, 72 h, in %), the “cell viability, IGR37 XP, 1μΜ” value is 106.9. Besides, in [9] (A375 GP, 1μΜ, 72 h, in %), the “cell viability, A375 GP, 1μΜ” value is given as 91.8. Moreover, in [9] (A375 GP, 10μΜ, 72 h, in %), the “cell viability, A375 GP, 10μΜ” value was 46.4.

`COc1cc(Nc2ncc(F)c(Nc3ccc4c(n3)N(COP(=O)([O-])[O-])C(=O)C(C)(C)O4)n2)cc(OC)c1OC.[Na+].[Na+]`: the “cell viability (kinase inhibitor library screening)” value in data set [1] (A375 XP, 10μΜ, in %) amounted to 70.0; in data set [2] (501Mel Parental, 10μΜ), 84.1; in [3] (A375 Parental, 10μΜ, in %), 56.1; in data set [4] (IGR37 Parental, 1μΜ), 103.8; in data set [4] (IGR37 Parental, 10μΜ), 87.6; in data set [5] (1μΜ) it was 98.3. Further, the “cell viability (kinase inhibitor library screening)” value in data set [5] (10μΜ) was determined as 70.8; in data set [6] (501Mel XP, 1μΜ), 98.8; in data set [6] (501Mel XP, 10μΜ), 37.9; in data set [7] (IGR37 GP, 1μΜ, in %) it was 89.3; in data set [7] (IGR37 GP, 10μΜ, in %), 37.8; in data set [8] (IGR37 XP, 1μΜ, in %), 94.1. The “cell viability (kinase inhibitor library screening)” value in data set [8] (IGR37 XP, 10μΜ, in %) is reported as 20.4; in [9] (A375 GP, 1μΜ, in %) it was 95.3; in data set [9] (A375 GP, 10μΜ, in %), 57.6.

Take `Cn1cnc(N)c2ncnc1-2` [3-Methyladenine]: the “Cell viability in kinase inhibitor library screening, A375 XP, 1μΜ” value in [1] (A375 XP, 1μΜ, 72 h) worked out at 106.2. Besides, the “Cell viability in kinase inhibitor library screening, A375 XP, 10μΜ” value in data set [1] (A375 XP, 10μΜ, 72 h) stood at 109.5. The “Cell viability in kinase inhibitor library screening, 501Mel Parental, 1μΜ” value in data set [2] (501Mel Parental, 1μΜ, 72 h) is on record as 107.2. Further, the “Cell viability in kinase inhibitor library screening, 501Mel Parental, 10μΜ” value in data set [2] (501Mel Parental, 10μΜ, 72 h) was 107.1. The “Cell viability in kinase inhibitor library screening, A375 Parental, 10μΜ” value in data set [3] (A375 Parental, 10μΜ, 72 h) was determined as 100.5. In [3] (A375 Parental, 1μΜ, 72 h), the “Cell viability in kinase inhibitor library screening, A375 Parental, 1μΜ” value was determined as 112.2. Moreover, in data set [4] (IGR37 Parental, 1μΜ, 72 h), the “Cell viability in kinase inhibitor library screening, IGR37 Parental, 1μΜ” value came to 108.7. In addition, in [4] (IGR37 Parental, 10μΜ, 72 h), the “Cell viability in kinase inhibitor library screening, IGR37 Parental, 10μΜ” value worked out at 106.4. For the same compound, in data set [5] (10μΜ, 72 h), the “Cell viability in kinase inhibitor library screening, 501Mel GP, 10μΜ” value is 93.3. In data set [6] (501Mel XP, 10μΜ, 72 h), the “Cell viability in kinase inhibitor library screening, 501Mel XP, 10μΜ” value worked out at 87.7. In addition, the Cell viability in kinase inhibitor library screening, IGR37 GP, 10μΜ in data set [7] (IGR37 GP, 10μΜ, 72 h) was 97%. Further, in data set [7] (IGR37 GP, 1μΜ, 72 h, in %), the “Cell viability in kinase inhibitor library screening, IGR37 GP, 1μΜ” value is 107.1. Further, the “Cell viability in kinase inhibitor library screening, A375 GP, 1μΜ” value in data set [9] (A375 GP, 1μΜ, 72 h) came out at 104.5.

As to `CNC(=O)c1ccc(C)c(-n2c(C)cc(OCc3ccc(F)cc3F)c(Br)c2=O)c1` [PH-797804], the “Cell viability in kinase inhibitor library screening, A375 XP, 10μΜ” value in [1] (A375 XP, 10μΜ, 72 h) was 95.8. Moreover, the “Cell viability in kinase inhibitor library screening, 501Mel Parental, 1μΜ” value in data set [2] (501Mel Parental, 1μΜ, 72 h) was 98.2. The “Cell viability in kinase inhibitor library screening, A375 Parental, 10μΜ” value in data set [3] (A375 Parental, 10μΜ, 72 h) came out at 84.4. Also, the “Cell viability in kinase inhibitor library screening, A375 Parental, 1μΜ” value in data set [3] (A375 Parental, 1μΜ, 72 h) came to 109.2. Further, the “Cell viability in kinase inhibitor library screening, IGR37 Parental, 1μΜ” value in [4] (IGR37 Parental, 1μΜ, 72 h) amounted to 103.0. In data set [5] (1μΜ, 72 h), the “Cell viability in kinase inhibitor library screening, 501Mel GP, 1μΜ” value is reported as 106.6. Besides, the “Cell viability in kinase inhibitor library screening, 501Mel GP, 10μΜ” value in data set [5] (10μΜ, 72 h) is given as 91.3. The “Cell viability in kinase inhibitor library screening, 501Mel XP, 1μΜ” value in [6] (501Mel XP, 1μΜ, 72 h) came out at 90.4. In addition, in [6] (501Mel XP, 10μΜ, 72 h), the “Cell viability in kinase inhibitor library screening, 501Mel XP, 10μΜ” value amounted to 84.3. This compound also registered a Cell viability in kinase inhibitor library screening, IGR37 XP, 10μΜ in data set [8] (IGR37 XP, 10μΜ, 72 h) of 74.4%. The “Cell viability in kinase inhibitor library screening, IGR37 XP, 1μΜ” value in data set [8] (IGR37 XP, 1μΜ, 72 h, in %) is on record as 104.2. Also, the “Cell viability in kinase inhibitor library screening, A375 GP, 1μΜ” value in [9] (A375 GP, 1μΜ, 72 h) was 103.3. For the same compound, the “Cell viability in kinase inhibitor library screening, A375 GP, 10μΜ” value in [9] (A375 GP, 10μΜ, 72 h) came out at 87.3.

As to `C[S+]([O-])c1ccc(-c2nc(-c3ccncc3)c(-c3ccc(F)cc3)[nH]2)cc1` (stereo not shown) [SB 203580], in data set [1], the “Cell viability in kinase inhibitor library screening, A375 XP, 1μΜ” value is 111.6 and the “Cell viability in kinase inhibitor library screening, A375 XP, 10μΜ” value was found to be 103.1. In data set [2], the “Cell viability in kinase inhibitor library screening, 501Mel Parental, 1μΜ” value is 108.7 and the “Cell viability in kinase inhibitor library screening, 501Mel Parental, 10μΜ” value is 95.5. For the same compound, in data set [3], the “Cell viability in kinase inhibitor library screening, A375 Parental, 1μΜ” value turned out to be 112.0 and the “Cell viability in kinase inhibitor library screening, A375 Parental, 10μΜ” value was determined as 83.0. In data set [4], the “Cell viability in kinase inhibitor library screening, IGR37 Parental, 1μΜ” value came out at 116.2 and the “Cell viability in kinase inhibitor library screening, IGR37 Parental, 10μΜ” value is reported as 92.9. In addition, the “Cell viability in kinase inhibitor library screening, 501Mel XP, 10μΜ” value in data set [6] was determined as 92.5. Further, in [7], the Cell viability in kinase inhibitor library screening, IGR37 GP, 10μΜ was 86.6%. Moreover, in data set [7] (in %), the “Cell viability in kinase inhibitor library screening, IGR37 GP, 1μΜ” value stood at 105.2. The same compound displayed a Cell viability in kinase inhibitor library screening, IGR37 XP, 10μΜ in [8] of 62.9%. Further, in [8] (in %), the “Cell viability in kinase inhibitor library screening, IGR37 XP, 1μΜ” value is 103.3. Besides, in data set [9], the “Cell viability in kinase inhibitor library screening, A375 GP, 1μΜ” value was 93.4 and the “Cell viability in kinase inhibitor library screening, A375 GP, 10μΜ” value is recorded as 98.4.

With `NC(=O)c1ccc(-c2nc(-c3ccc4c(c3)OCO4)c(-c3ccccn3)[nH]2)cc1` [SB 431542], the “cell viability (kinase inhibitor library screening)” value is reported as 109.0 in data set [1] (A375 XP, 1μΜ, in %); 106.6 in data set [1] (A375 XP, 10μΜ, in %); 98.3 in data set [2] (501Mel Parental, 1μΜ); 106.2 in data set [3] (A375 Parental, 1μΜ, in %); 97.8 in data set [4] (IGR37 Parental, 10μΜ); 102.6 in data set [5] (1μΜ). Further, the “cell viability (kinase inhibitor library screening)” value stood at 85.7 in data set [5] (10μΜ); 93.8 in data set [6] (501Mel XP, 1μΜ); 79.9 in [6] (501Mel XP, 10μΜ); 100.4 in data set [7] (IGR37 GP, 1μΜ, in %); 87.9 in data set [7] (IGR37 GP, 10μΜ, in %); 100.0 in data set [9] (A375 GP, 1μΜ, in %). In addition, the “cell viability (kinase inhibitor library screening)” value in data set [9] (A375 GP, 10μΜ, in %) is reported as 98.5.

For `COc1cc2nccc(Oc3ccc(NC(=O)Nc4cc(C)on4)c(Cl)c3)c2cc1OC` [Tivozanib (AV-951)], the “cell viability (kinase inhibitor library screening)” value in data set [1] (A375 XP, 1μΜ, in %) came to 105.9; in data set [1] (A375 XP, 10μΜ, in %) it was 77.7; in data set [2] (501Mel Parental, 10μΜ) it was 74.1; in data set [3] (A375 Parental, 1μΜ, in %), 104.6; in data set [3] (A375 Parental, 10μΜ, in %), 60.4; in data set [4] (IGR37 Parental, 1μΜ), 97.2. Also, the “cell viability (kinase inhibitor library screening)” value is 83.4 in data set [4] (IGR37 Parental, 10μΜ); 103.1 in [5] (1μΜ); 58.3 in [5] (10μΜ); 97.3 in data set [6] (501Mel XP, 1μΜ); 64.2 in data set [6] (501Mel XP, 10μΜ); 55.2 in data set [8] (IGR37 XP, 10μΜ, in %). The “cell viability (kinase inhibitor library screening)” value was found to be 99.1 in data set [9] (A375 GP, 1μΜ, in %) and 54.4 in [9] (A375 GP, 10μΜ, in %).
